Data reported in patent US8889876B2, “Histone deacetylase inhibitors and uses thereof” (Jiangsu Hengyi Pharmaceutical Co., Ltd., priority 2008, dated 2014).

Tests used:
[1] = test system: Hut78 T-cell Leukemia cell; experiment: CCK-8 proliferation inhibition, Hut78; type: cell-based; conditions: for inhibition at 10 µM / inhibition at 100 µM: Homo sapiens, read-out: Hut-78 (inhibition %); for inhibition at 10 µM: HuT78, 10 μM; for inhibition at 100 µM: HuT78, 100 μM
Protocol: (§1) Detecting the inhibition rate of the compound concentrations of 100 μM and 10 μM to Hut78 T-cell Leukemia cell, Jurkat E6-1 human T-cell lymphoma, PANC-1 human pancreatic cancer cells, A549 human lung cancer cells, K562 human chronic myeloid leukemia cells, Hep3B2.1-7 human liver cancer cells, MDA-MB-435s human breast cancer cells, Colo320 human rectal cancer cells and PC-3 human prostate cancer using CCK-8 method.

[2] = test system: PC-3 human prostate cancer; experiment: CCK-8 proliferation inhibition, PC-3; type: cell-based; conditions: CCK-8 method; for inhibition at 10 µM / inhibition at 100 µM: Homo sapiens
Protocol: as §1

[3] = test system: Colo320 human rectal cancer cells; experiment: CCK-8 proliferation inhibition, Colo320; type: cell-based; conditions: CCK-8 method; for inhibition at 10 µM / inhibition at 100 µM: Homo sapiens, COLO 320
Protocol: as §1

[4] = test system: Hep3B2.1-7 human liver cancer cells; experiment: CCK-8 proliferation inhibition, Hep3B2.1-7; type: cell-based; conditions: CCK-8 method; for inhibition at 10 µM / inhibition at 100 µM: Homo sapiens, Hep3B
Protocol: as §1

[5] = test system: K562 human chronic myeloid leukemia cells; experiment: CCK-8 proliferation inhibition, K562; type: cell-based; conditions: for inhibition at 10 µM / inhibition at 100 µM: Homo sapiens; for inhibition at 10 µM: K562, 10 μM; for inhibition at 100 µM: K562, 100 μM
Protocol: as §1

[6] = test system: A549 human lung cancer cells; experiment: CCK-8 proliferation inhibition, A549; type: cell-based; conditions: CCK-8 method; for inhibition at 10 µM / inhibition at 100 µM: Homo sapiens, A549
Protocol: as §1

[7] = test system: MDA-MB-435s human breast cancer cells; experiment: CCK-8 proliferation inhibition, MDA-MB-435s; type: cell-based; conditions: CCK-8 method; for inhibition at 10 µM / inhibition at 100 µM: Homo sapiens, MDA-MB-435S
Protocol: as §1

[8] = test system: PANC-1 human pancreatic cancer cells; experiment: CCK-8 proliferation inhibition, PANC-1; type: cell-based; conditions: for inhibition at 10 µM / inhibition at 100 µM: Homo sapiens; for inhibition at 10 µM: PANC-1, 10 μM; for inhibition at 100 µM: PANC-1, 100 μM
Protocol: as §1

histone deacetylase = experiment: in vitro inhibition of histone deacetylase by HDAC inhibitor screening kit (Biovision K340-100); type: biochemical
Protocol: An assay for determining the in vitro inhibition activity of the compound on histone deacetylase is conducted according to the specification of HDAC inhibitor screeing kid (Biovision Company/Catalog #K340-100). […]

[9] = test system: Jurkat E6-1 human T-cell lymphoma; experiment: CCK-8 proliferation inhibition, Jurkat E6-1; type: cell-based; conditions: for inhibition at 10 µM / inhibition at 100 µM: Homo sapiens; for inhibition at 10 µM: Jurkat E6.1, 10 μM; for inhibition at 100 µM: Jurkat E6.1, 100 μM
Protocol: as §1

Row | Compound | inhibition at 10 µM [1] | inhibition at 100 µM [1] | inhibition at 10 µM ([2]; compound concentration 10 μM) | inhibition at 100 µM ([2]; compound concentration 100 μM) | inhibition at 10 µM ([3]; compound concentration 10 μM) | inhibition at 100 µM ([3]; compound concentration 100 μM) | inhibition at 10 µM ([4]; compound concentration 10 μM) | inhibition at 100 µM ([4]; compound concentration 100 μM) | inhibition at 10 µM [5] | inhibition at 100 µM [5] | inhibition at 10 µM ([6]; compound concentration 10 μM) | inhibition at 100 µM ([6]; compound concentration 100 μM) | inhibition at 10 µM ([7]; compound concentration 10 μM) | inhibition at 100 µM ([7]; compound concentration 100 μM) | inhibition at 10 µM [8] | inhibition at 100 µM [8] | inhibition at 10 µM [9] | inhibition at 100 µM [9] | further results
1 | COc1cc(COC(=O)NCc2ccc(C(=O)Nc3cccnc3N)cc2)cc(OC)c1OC [V-13, N-(2-amino-3-pyridyl)-4-[(3,4,5-trimethoxybenzyloxyacyl)aminomethyl]benzamide] | 10.8% | 24% | 5.1% | 19.3% | 4.4% | 4.2% | 27% | 26.2% | -2.8% | 30.3% | 24.6% | 42.3% | -11.9% | 11.8% | 22.3% | 26.4% | 0.9% | 22.8% | Inhibition rate(%) (histone deacetylase; 3.91 μM): 1.9%; Inhibition rate(%) (histone deacetylase; 62.5 μM): 7.8%; Inhibition rate(%) (histone deacetylase; 2 mM): 50.0%
2 | Nc1ncccc1NC(=O)c1ccc(CNC(=O)OCc2ccc([N+](=O)[O-])cc2)cc1 [V-15, N-(2-amino-3-pyridyl)-4-[(4-nitrobenzyloxyacyl)aminomethyl]benzamide] | 28.5% | 24.6% | 21.9% | 18.8% | 2.6% | 4.1% | 22.3% | 43% | 20.4% | 32.3% | 15.3% | 12.9% | 30.6% | 42.4% | 24% | 21.1% | 18.6% | 26.3% | –
3 | Nc1cnccc1NC(=O)c1ccc(CNC(=O)OCc2ccc(F)cc2)cc1 [V-20] | 22% | 91.1% | 22.9% | 84.4% | -14.3% | 82.7% | 7.2% | 79.3% | 34% | 88.7% | -17.6% | 72.2% | 19.5% | 63.9% | -2.8% | 15.7% | 23.8% | 96.5% | –
4 | COc1ccc(COC(=O)NCc2ccc(C(=O)Nc3ccncc3N)cc2)cc1 [V-12] | 17.5% | 83.6% | 29.7% | 89.3% | -1.8% | 86.4% | 5% | 90.4% | 56.9% | 94.5% | -5.9% | 38% | 14.2% | 94.5% | -1.8% | 34.9% | 36.4% | 96.3% | –
5 | COc1ccc(/C=C/C(=O)NCc2ccc(C(=O)Nc3cccnc3N)cc2)cc1 [V-29, N-(2-amino-3-pyridyl)-4-[(4-methoxycinnamoyl)aminomethyl]benzamide] | 45.2% | 75.6% | 40.1% | 64.2% | 9.5% | 45.9% | 11% | 68.1% | 52.2% | 85.2% | 0% | 41.3% | 17% | 57.8% | 12.5% | 33.3% | 49.3% | 89.7% | –
6 | Nc1cnccc1NC(=O)c1ccc(CNC(=O)CCc2ccccc2)cc1 [V-49] | 2.3% | 54.4% | 28.3% | 53.8% | -2.5% | 33.8% | 11% | 63.4% | 22.1% | 71% | -9.5% | 39.9% | 10.3% | 51.9% | -6.1% | 7.3% | 28.4% | 93.7% | –
7 | Nc1ncccc1NC(=O)c1ccc(CNC(=O)CCc2ccccc2)cc1 [V-48, N-(2-amino-3-pyridyl)-4-[(3-phenylpropionyl)aminomethyl]benzamide] | -0.4% | 47.4% | -16.4% | 14.8% | 2.9% | 17.9% | -14% | 20.5% | 20% | 57.2% | 3.9% | 9.8% | 10% | 26.6% | -2.2% | -1.8% | 9.7% | 61.9% | –
8 | Nc1ncccc1NC(=O)c1ccc(CNC(=O)CCc2ccc(F)cc2)cc1 [V-60, N-(2-amino-3-pyridyl)-4-[3-(4-fluorophenyl)propionylaminomethyl]benzamide] | 11.8% | 28.5% | 1% | 8.1% | -5.4% | 2.3% | 9.9% | 31.7% | 14.6% | 42.7% | 3.7% | 12.2% | -7.8% | -3.4% | 27.3% | 26.1% | 11% | 33.3% | –
9 | COc1ccc(CCC(=O)NCc2ccc(C(=O)Nc3cccnc3N)cc2)cc1 [V-52, N-(2-amino-3-pyridyl)-4-[3-(4-methoxyphenyl)propionylaminomethyl]benzamide] | 6.5% | 50.8% | -7.4% | 24.7% | 8% | 17.7% | 19% | 78.6% | 29% | 67.3% | 9.8% | 9.9% | 13.9% | 22.8% | 13.3% | 17.7% | 7.6% | 73.8% | –
10 | N-(2-amino-3-pyridyl)-4-[(2-naphthylmethoxyacyl)aminomethyl)benzamide [V-23] | – | – | – | – | – | – | – | – | – | – | – | – | – | – | – | – | – | – | Hut-78 (inhibition %) ([1]; 10 μM): 20.7%; Hut-78 (inhibition %) ([1]; 100 μM): 10.4%; PC-3 (inhibition %) ([2]; compound concentration 10 μM): 10.9%; PC-3 (inhibition %) ([2]; compound concentration 100 μM): 8.6%; Colo320 (inhibition %) ([3]; compound concentration 10 μM): 15.3%; Colo320 (inhibition %) ([3]; compound concentration 100 μM): 3.9%; Hep3B (inhibition %) ([4]; compound concentration 10 μM): 16.3%; Hep3B (inhibition %) ([4]; compound concentration 100 μM): 11.2%; K562 (inhibition %) ([5]; 10 μM): 27.2%; K562 (inhibition %) ([5]; 100 μM): 11.9%; A549 (inhibition %) ([6]; compound concentration 10 μM): 4.7%; A549 (inhibition %) ([6]; compound concentration 100 μM): 3.5%; 435s(inhibition %) ([7]; compound concentration 10 μM): 21.6%; 435s(inhibition %) ([7]; compound concentration 100 μM): 21.0%; PANC-1 (inhibition %) ([8]; 10 μM): 7.2%; PANC-1 (inhibition %) ([8]; 100 μM): 0.5%; Jurkat E6-1 (inhibition %) ([9]; 10 μM): 33.7%; Jurkat E6-1 (inhibition %) ([9]; 100 μM): 13.9%
11 | Nc1ncccc1NC(=O)c1ccc(CNC(=O)/C=C/c2ccc3ccccc3c2)cc1 [V-46, N-(2-amino-3-pyridyl)-4-(2-naphthylacryloylaminomethyl)benzamide] | 16.4% | 13.4% | -1.7% | -2.4% | 13.7% | -9% | 17.5% | -5% | 27.3% | 18.9% | 7.7% | 4.1% | 16.4% | 4.1% | 8.1% | 0.4% | 14.8% | 1.9% | –
